Results: patent US8859569B2, “Substituted annellated pyrimidines and use thereof” (Bayer Pharma Aktiengesellschaft, priority 2011, dated 2014)
pIC50: −log10 of the molar value.

Experiments:
[1] = target: T1, human phosphodiesterase 5 (PDE-5) (Homo sapiens, UniProt O76074); test: Inhibition of human phosphodiesterase 5 (PDE-5), SPA assay; type: biochemical; details: PDE-5 preparation from human platelets, [8-3H]cGMP substrate
T1 construct: PDE-5 preparations are obtained from human platelets by lysis; from tissue; host or cells: human platelets
Procedure, shortened: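 Scintillation proximity read-out with yttrium beads after 60 min room-temperature hydrolysis of 0.025 μCi [8-3H]cGMP, pH 7.5 Tris/MgCl2/EDTA buffer. Enzyme is a human platelet PDE-5 fraction, diluted to keep substrate turnover below 70%. Test concentrations 4 μM–0.0018 μM final; IC50 from inhibition curves.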

[2] = target: T2, recombinant guanylate cyclase reporter cell line (Rattus norvegicus, UniProt P19686+P20595); test: Action on recombinant guanylate cyclase reporter cell line; type: cell-based
T2 construct: expressed in transfected cells
T2 sequence (P20595 1-619): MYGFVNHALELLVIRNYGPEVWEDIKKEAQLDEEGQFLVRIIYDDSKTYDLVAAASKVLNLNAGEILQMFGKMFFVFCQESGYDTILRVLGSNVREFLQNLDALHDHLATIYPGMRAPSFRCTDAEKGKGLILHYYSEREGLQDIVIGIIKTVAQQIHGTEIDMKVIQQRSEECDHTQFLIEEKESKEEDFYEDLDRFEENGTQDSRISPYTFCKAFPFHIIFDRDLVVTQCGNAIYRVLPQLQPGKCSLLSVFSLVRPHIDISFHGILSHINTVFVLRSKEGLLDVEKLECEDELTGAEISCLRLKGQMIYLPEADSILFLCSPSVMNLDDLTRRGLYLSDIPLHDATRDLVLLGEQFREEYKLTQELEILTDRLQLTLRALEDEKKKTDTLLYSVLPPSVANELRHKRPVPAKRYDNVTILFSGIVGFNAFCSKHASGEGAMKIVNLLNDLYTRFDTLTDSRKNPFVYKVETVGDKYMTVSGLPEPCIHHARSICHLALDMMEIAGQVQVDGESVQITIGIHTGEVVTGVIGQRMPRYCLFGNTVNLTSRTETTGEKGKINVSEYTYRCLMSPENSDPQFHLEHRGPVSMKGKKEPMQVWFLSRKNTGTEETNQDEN
T2 sequence (P19686 1-690): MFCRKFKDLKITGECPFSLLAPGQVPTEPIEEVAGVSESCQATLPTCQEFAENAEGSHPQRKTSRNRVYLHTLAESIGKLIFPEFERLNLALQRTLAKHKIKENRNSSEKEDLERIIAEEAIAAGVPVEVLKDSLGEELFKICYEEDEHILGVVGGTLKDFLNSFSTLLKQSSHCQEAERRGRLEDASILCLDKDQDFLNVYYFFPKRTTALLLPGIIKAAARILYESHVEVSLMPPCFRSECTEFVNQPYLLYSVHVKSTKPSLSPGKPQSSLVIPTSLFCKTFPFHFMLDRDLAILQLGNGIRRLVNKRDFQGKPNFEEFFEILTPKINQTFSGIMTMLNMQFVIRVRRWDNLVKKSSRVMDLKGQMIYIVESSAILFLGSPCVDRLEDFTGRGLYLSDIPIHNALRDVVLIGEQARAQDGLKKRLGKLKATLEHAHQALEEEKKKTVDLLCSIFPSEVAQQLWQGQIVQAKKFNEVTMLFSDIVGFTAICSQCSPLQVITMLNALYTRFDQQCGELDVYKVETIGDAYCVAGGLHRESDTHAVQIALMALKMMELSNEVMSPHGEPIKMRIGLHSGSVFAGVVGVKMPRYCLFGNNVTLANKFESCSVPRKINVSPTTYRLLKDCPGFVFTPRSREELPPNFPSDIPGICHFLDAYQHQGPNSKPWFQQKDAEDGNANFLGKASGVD
Method: B-2. Action on Recombinant Guanylate Cyclase Reporter Cell Line
The cellular action of the compounds according to the invention is determined on a recombinant guanylate cyclase reporter cell line, as described in F. Wunder et al., Anal. Biochem. 339, 104-112 (2005).

aorta rings = test: Vessel-relaxing action in vitro (aorta rings, phenylephrine contraction); details: Oryctolagus cuniculus, concentration required to reduce phenylephrine-induced contraction of rabbit aorta rings by 50%
Method: B-1. Vessel-relaxing Action in vitro
Rabbits are stunned with a blow on the back of the neck and exsanguinated. The aorta is removed, freed from adhering tissue, separated into rings with a width of 1.5 mm, and placed individually, with preloading, in 5-ml organ baths with carbogen-gassed Krebs-Henseleit solution at 37° C. with the following composition (mM in each case): sodium chloride: 119; potassium chloride: 4.8; calcium chloride dihydrate: 1; magnesium sulphate heptahydrate: 1.4; potassium dihydrogen phosphate: 1.2; sodium hydrogen carbonate: 25; glucose: 10. The contraction force is recorded with Statham UC2 cells, amplified and digitized via an A/D converter (DAS-1802 HC, Keithley Instruments Munich) and recorded in parallel on a continuous-line recorder. To produce contraction, phenylephrine is added to the bath cumulatively in increasing concentration. After several control cycles, the test substance is added in increasing dosage in each subsequent pass and the level of contraction is compared with the level of contraction reached in the immediately preceding pass. This is used for calculating the concentration that is required to reduce the level of the control value by 50% (IC50 value). The standard application volume is 5 μl, and the proportion of DMSO in the bath solution corresponds to 0.1%.

pIC50 [1]	MEC (minimal effective concentration) [2]	pIC50 (aorta rings)	Structure (SMILES)
7.28	0.3 μm	6.26	CC1(C)C(=O)Nc2nc(-c3nn(Cc4ccccc4F)c4ncc(F)cc34)nc(NCC3CC3)c21 [Example 10, 4-[(Cyclopropylmethyl)amino]-2-[5-fluoro-1-(2-fluorobenzyl)-1H-pyrazolo[3,4-b]pyridin-3-yl]-5,5-dimethyl-5,7-dihydro-6H-pyrrolo[2,3-d]pyrimidin-6-one]
7.32	0.3 μm	6.18	CC1(C)C(=O)Nc2nc(-c3nn(Cc4ccccc4F)c4ncc(F)cc34)nc(NCC(F)(F)F)c21 [Example 11, 2-[5-Fluoro-1-(2-fluorobenzyl)-1H-pyrazolo[3,4-b]pyridin-3-yl]-5,5-dimethyl-4-[(2,2,2-trifluoroethyl)amino]-5,7-dihydro-6H-pyrrolo[2,3-d]pyrimidin-6-one]
7.30	0.1 μm	6.20	CC1(C)C(=O)Nc2nc(-c3nn(Cc4ncccc4F)c4ncc(F)cc34)nc(NCCC(F)(F)F)c21 [Example 12, 2-{5-Fluoro-1-[(3-fluoropyridin-2-yl)methyl]-1H-pyrazolo[3,4-b]pyridin-3-yl}-5,5-dimethyl-4-[(3,3,3-trifluoropropyl)amino]-5,7-dihydro-6H-pyrrolo[2,3-d]pyrimidin-6-one]
7.10	0.1 μm	5.30	CC1(C)C(=O)Nc2nc(-c3nc(Cc4c(F)ccc(F)c4F)n4cc(Cl)ccc34)nc(NCCC(F)(F)F)c21 [Example 13, 2-[6-Chloro-3-(2,3,6-trifluorobenzyl)imidazo[1,5-a]pyridin-1-yl]-5,5-dimethyl-4-[(3,3,3-trifluoropropyl)amino]-5,7-dihydro-6H-pyrrolo[2,3-d]pyrimidin-6-one]
6.37	1.0 μm	6.34	CC1(C)C(=O)Nc2nc(-c3nn(Cc4ncccc4F)c4ncc(F)cc34)nc(N3CC(F)C3)c21 [Example 15, 4-(3-Fluoroazetidin-1-yl)-2-{5-fluoro-1-[(3-fluoropyridin-2-yl)methyl]-1H-pyrazolo[3,4-b]pyridin-3-yl}-5,5-dimethyl-5,7-dihydro-6H-pyrrolo[2,3-d]pyrimidin-6-one]
7.89	0.1 μm	6.90	CC1(C)C(=O)Nc2nc(-c3nn(Cc4ncccc4F)c4ncc(F)cc34)nc(NCC(F)(F)F)c21 [Example 16, 2-{5-Fluoro-1-[(3-fluoropyridin-2-yl)methyl]-1H-pyrazolo[3,4-b]pyridin-3-yl}-5,5-dimethyl-4-[(2,2,2-trifluoroethyl)amino]-5,7-dihydro-6H-pyrrolo[2,3-d]pyrimidin-6-one]
7.62	0.1 μm	6.70	CC1(C)C(=O)Nc2nc(-c3nn(Cc4ncccc4F)c4ncc(F)cc34)nc(NCC3CC3)c21 [Example 17, 4-[(Cyclopropylmethyl)amino]-2-{5-fluoro-1-[(3-fluoropyridin-2-yl)methyl]-1H-pyrazolo[3,4-b]pyridin-3-yl}-5,5-dimethyl-5,7-dihydro-6H-pyrrolo[2,3-d]pyrimidin-6-one]
6.92	0.03 μm	5.57	CC1(C)C(=O)Nc2nc(-c3nn(Cc4ccccc4F)c4ncc(F)cc34)nc(NCCCC(F)(F)F)c21 [Example 18, 2-[5-Fluoro-1-(2-fluorobenzyl)-1H-pyrazolo[3,4-b]pyridin-3-yl]-5,5-dimethyl-4-[(4,4,4-trifluorobutyl)amino]-5,7-dihydro-6H-pyrrolo[2,3-d]pyrimidin-6-one]
6.55	0.3 μm	5.89	CC1(C)C(=O)Nc2nc(-c3nn(Cc4ccccc4F)c4c3CCC4)nc(NCC(F)(F)F)c21 [Example 19, 2-[1-(2-Fluorobenzyl)-1,4,5,6-tetrahydrocyclopenta[c]pyrazol-3-yl]-5,5-dimethyl-4-[(2,2,2-trifluoroethyl)amino]-5,7-dihydro-6H-pyrrolo[2,3-d]pyrimidin-6-one]
6.05	0.3 μm	5.73	CC1(C)C(=O)Nc2nc(-c3nn(Cc4ccccc4F)c4c3CCC4)nc(NCCC(F)(F)F)c21 [Example 20, 2-[1-(2-Fluorobenzyl)-1,4,5,6-tetrahydrocyclopenta[c]pyrazol-3-yl]-5,5-dimethyl-4-[(3,3,3-trifluoropropyl)amino]-5,7-dihydro-6H-pyrrolo[2,3-d]pyrimidin-6-one]
6.40	0.03 μm	7.00	CCN1CCN(c2nc(-c3nn(Cc4ccccc4F)c4ncccc34)nc3c2C(C)(C)C(=O)N3)C1=O [Example 21, 4-(3-Ethyl-2-oxoimidazolidin-1-yl)-2-[1-(2-fluorobenzyl)-1H-pyrazolo[3,4-b]pyridin-3-yl]-5,5-dimethyl-5,7-dihydro-6H-pyrrolo[2,3-d]pyrimidin-6-one]
6.24	0.03 μm	6.28	CC1(C)C(=O)Nc2nc(-n3nc(Cc4ccccc4F)c4ccccc43)nc(O)c21 [Example 22, 2-[3-(2-Fluorobenzyl)-1H-indazol-1-yl]-4-hydroxy-5,5-dimethyl-5,7-dihydro-6H-pyrrolo[2,3-d]pyrimidin-6-one]
5.80	0.1 μm	5.54	Cc1cc(C)n(-c2nc(-c3nn(Cc4ccccc4F)c4ncccc34)nc3c2C(C)(C)C(=O)N3)n1 [Example 23, 4-(3,5-Dimethyl-1H-pyrazol-1-yl)-2-[1-(2-fluorobenzyl)-1H-pyrazolo[3,4-b]pyridin-3-yl]-5,5-dimethyl-5,7-dihydro-6H-pyrrolo[2,3-d]pyrimidin-6-one]
7.00	0.1 μm	6.24	CC1(C)C(=O)Nc2nc(-c3nn(Cc4ccccc4F)c4ncccc34)nc(-n3cccc(F)c3=O)c21 [Example 24, 2-[1-(2-Fluorobenzyl)-1H-pyrazolo[3,4-b]pyridin-3-yl]-4-(3-fluoro-2-oxopyridin-1(2H)-yl)-5,5-dimethyl-5,7-dihydro-6H-pyrrolo[2,3-d]pyrimidin-6-one]
6.49	0.1 μm	6.30	CC1(C)C(=O)Nc2nc(-c3nn(Cc4ccccc4F)c4ncccc34)nc(N3CC(C(F)(F)F)CC3=O)c21 (stereo not drawn) [Example 25, 2-[1-(2-Fluorobenzyl)-1H-pyrazolo[3,4-b]pyridin-3-yl]-5,5-dimethyl-4-[2-oxo-4-(trifluoromethyl)pyrrolidin-1-yl]-5,7-dihydro-6H-pyrrolo[2,3-d]pyrimidin-6-one]
